Usually Ki stands for a measure of affinity in units of concentration, obtained from inhibition or displacement.

Sequence of human O-GlcNAcase (O60502 whole entry): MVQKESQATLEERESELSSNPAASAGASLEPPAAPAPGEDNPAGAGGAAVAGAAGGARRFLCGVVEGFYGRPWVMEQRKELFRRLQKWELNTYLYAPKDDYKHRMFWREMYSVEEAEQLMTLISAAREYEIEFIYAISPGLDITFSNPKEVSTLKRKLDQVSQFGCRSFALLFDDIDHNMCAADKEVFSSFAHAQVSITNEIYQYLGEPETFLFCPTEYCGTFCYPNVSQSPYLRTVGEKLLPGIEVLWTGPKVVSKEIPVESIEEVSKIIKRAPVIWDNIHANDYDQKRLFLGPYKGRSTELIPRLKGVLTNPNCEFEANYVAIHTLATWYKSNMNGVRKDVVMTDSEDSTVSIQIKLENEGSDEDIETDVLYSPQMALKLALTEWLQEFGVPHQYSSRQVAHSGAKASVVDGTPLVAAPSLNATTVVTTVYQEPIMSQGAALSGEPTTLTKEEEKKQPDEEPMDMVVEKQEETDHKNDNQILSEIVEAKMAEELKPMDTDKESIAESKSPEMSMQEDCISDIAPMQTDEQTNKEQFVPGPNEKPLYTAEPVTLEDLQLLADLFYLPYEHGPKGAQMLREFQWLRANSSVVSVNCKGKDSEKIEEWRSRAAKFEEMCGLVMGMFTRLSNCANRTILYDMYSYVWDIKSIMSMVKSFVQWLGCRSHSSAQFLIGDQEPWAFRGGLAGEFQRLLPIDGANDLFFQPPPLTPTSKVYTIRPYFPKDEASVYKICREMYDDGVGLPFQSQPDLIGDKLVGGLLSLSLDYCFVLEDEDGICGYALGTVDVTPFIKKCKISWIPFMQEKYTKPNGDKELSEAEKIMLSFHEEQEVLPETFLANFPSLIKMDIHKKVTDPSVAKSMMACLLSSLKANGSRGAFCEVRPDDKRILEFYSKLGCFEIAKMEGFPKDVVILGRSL

For the assay, the target named is human O-GlcNAcase (Homo sapiens (Human), UniProt O60502). Kind of assay: Assay for determination of KI values for inhibition of O-GlcNAcase activity. The class given is biochemical. Conditions: purified human O-GlcNAcase 0.7 nM; substrate 2 mM 4-Methylumbelliferyl N-acetyl-β-D-glucosaminide; pH 7.0; room temperature; Cheng-Prusoff; read-out: hOGA Ki. The protocol:
Assay for Determination of KI Values for Inhibition of O-GlcNAcase Activity
Experimental procedure for kinetic analyses: Enzymatic reactions were carried out in a reaction containing 50 mM NaH2PO4, 100 mM NaCl and 0.1% BSA (pH 7.0) using 2 mM 4-Methylumbelliferyl N-acetyl-β-D-glucosaminide dihydrate (Sigma M2133) dissolved in ddH2O, as a substrate. The amount of purified human O-GlcNAcase enzyme used in the reaction was 0.7 nM. Test compound of varying concentrations was added to the enzyme prior to initiation of the reaction. The reaction was performed at room temperature in a 96-well plate and was initiated with the addition of substrate. The production of fluorescent product was measured every 60 sec for 45 min with a Tecan Infinite M200 plate-reader with excitation at 355 nm and emission detected at […], with 4-Methylumbelliferone (Sigma M1381) used to produce a standard curve. The slope of product production was determined for each concentration of compound tested and plotted, using standard curve fitting algorithms for sigmoidal dose response curves. The values for a four parameter logistic curve fit of the data were determined. KI values were determined using the Cheng-Prusoff equation; the Km of O-GlcNAcase for substrate was 0.2 mM.
For the molecule `CC(=O)Nc1ncc(CN2CCC(=Cc3ccc(-c4ccccc4)cc3)CC2)s1` [Example 48, N-(5-((4-([1,1′-biphenyl]-4-ylmethylene)piperidin-1-yl)methyl)thiazol-2-yl)acetamide], the Ki amounted to 53.8 nM.

`CC(=O)Nc1ncc(CN2CC/C(=C\c3ccccc3)C[C@@H]2C)s1` [Example 37, (S,E)-N-(5-((4-benzylidene-2-methylpiperidin-1-yl)methyl)thiazol-2-yl)acetamide]: the Ki stood at 29.8 nM.

`CC(=O)Nc1ncc(CN2CCC(=Cc3cn[nH]c3)CC2)s1` [Example 8, N-(5-((4-((1H-pyrazol-4-yl)methylene)piperidin-1-yl)methyl)thiazol-2-yl)acetamide]: the Ki was determined as 0.387 nM.

As for `CNC(=O)c1ccc(C=C2CCN(Cc3cnc(NC(C)=O)s3)CC2)cc1` [Example 30, 4-[(1-{[2-(acetylamino)-1,3-thiazol-5-yl]methyl}piperidin-4-ylidene)methyl]-N-methylbenzamide], the Ki was found to be 0.43 nM.

Consider `C=CCOc1ccc(C=C2CCN(Cc3cnc(NC(C)=O)s3)CC2)cc1` [Example 45, N-{5-[(4-{[4-(prop-2-en-1-yloxy)phenyl]methylidene}piperidin-1-yl)methyl]-1,3-thiazol-2-yl}acetamide], for which the Ki was determined as 6.11 nM.

Take `CC(=O)Nc1ncc(CN2CC/C(=C\c3ccc(F)nc3)C[C@@H]2C)s1` [Example 54, (S,E)-N-(5-((4-((6-fluoropyridin-3-yl)methylene)-2-methylpiperidin-1-yl)methyl)thiazol-2-yl)acetamide]: the Ki came to 11.8 nM.

For the molecule `CC(=O)Nc1ncc(CN2CCC(=Cc3ccc4c(c3)OCO4)CC2)s1` [Example 19, N-(5-{[4-(1,3-benzodioxol-5-ylmethylidene)piperidin-1-yl]methyl}-1,3-thiazol-2-yl)acetamide], the Ki worked out at 1.03 nM.

For the molecule `COc1ccccc1C=C1CCN(Cc2cnc(NC(C)=O)s2)CC1` [Example 47, N-(5-((4-(2-methoxybenzylidene)piperidin-1-yl)methyl)thiazol-2-yl)acetamide], the Ki turned out to be 2.45 nM.

On to `CC(=O)Nc1ncc(CN2CC/C(=C/c3ccc(F)nc3)C[C@H]2C)s1` [Example 51, (R,Z)—N-(5-((4-((6-fluoropyridin-3-yl)methylene)-2-methylpiperidin-1-yl)methyl)thiazol-2-yl)acetamide], for which the Ki turned out to be 218 nM.

As to `CC(=O)Nc1ncc(CN2CC/C(=C\c3ccc(F)nc3)C[C@H]2C)s1` [Example 53, (R,E)-N-(5-((4-((6-fluoropyridin-3-yl)methylene)-2-methylpiperidin-1-yl)methyl)thiazol-2-yl)acetamide], the Ki turned out to be 123 nM.

Consider `CC(=O)Nc1ncc(CN2CCC(=Cc3ccc(OC(F)(F)F)cc3)CC2)s1` [Example 11, N-(5-((4-(4-(trifluoromethoxy)benzylidene)-piperidin-1-yl)methyl)thiazol-2-yl)acetamide], for which the Ki worked out at 3.15 nM.

As for `CC(=O)Nc1ncc(CN2CCC(=Cc3ccc(C(=O)N(C)C)cc3)CC2)s1` [Example 31, 4-((1-((2-acetamidothiazol-5-yl)methyl)piperidin-4-ylidene)methyl)-N,N-dimethylbenzamide], the Ki worked out at 0.117 nM.

Turning to `CCOc1ccc(C=C2CCN(Cc3cnc(NC(C)=O)s3)CC2)cc1` [Example 14, N-(5-((4-(4-ethoxybenzylidene)piperidin-1-yl)methyl)thiazol-2-yl)acetamide], the Ki was 1.45 nM.

Consider `CC(=O)Nc1ncc(CN2CCC(=Cc3ccc(N)nc3)CC2)s1` [Example 6, N-[5-({4-[(6-aminopyridin-3-yl)methylidene]piperidin-1-yl}methyl)-1,3-thiazol-2-yl]acetamide], for which the Ki was found to be 0.635 nM.

As for `CC(=O)Nc1ncc(CN2CC/C(=C/c3ccccc3)C[C@H]2C)s1` [Example 35, (R,Z)-N-(5-((4-benzylidene-2-methylpiperidin-1-yl)methyl)thiazol-2-yl)acetamide], the Ki was 56.6 nM.

For `CC(=O)Nc1ncc(CN2CCC(=Cc3ccc([N+](=O)[O-])nc3)CC2)s1` [Example 49], the inhibition constant Ki is 1.6 nM.

Turning to `CC(=O)Nc1ncc(CN2CCC(=Cc3cccc(O)c3)CC2)s1` [Example 44, N-(5-((4-(3-hydroxybenzylidene)piperidin-1-yl)methyl)thiazol-2-yl)acetamide], the Ki stood at 1.13 nM.

For the molecule `CC(=O)Nc1ncc(CN2CCC(=Cc3ccc(F)nc3)CC2)s1` [Example 2, N-(5-((4-((6-fluoropyridin-3-yl)methylene)piperidin-1-yl)methyl)thiazol-2-yl)acetamide], the Ki turned out to be 2.08 nM.

`CC(=O)Nc1ncc(CN2CC/C(=C\c3ccccc3)C[C@H]2C)s1` [Example 36, (R,E)-N-(5-((4-benzylidene-2-methylpiperidin-1-yl)methyl)thiazol-2-yl)acetamide]: the Ki was found to be 412 nM.

Regarding `CC(=O)Nc1ncc(CN2CCC(=Cc3cccc(CO)c3)CC2)s1` [Example 7, N-(5-((4-(3-(hydroxymethyl)benzylidene)piperidin-1-yl)methyl)thiazol-2-yl)acetamide], the Ki is 0.69 nM.

Take `CCc1ccc(C=C2CCN(Cc3cnc(NC(C)=O)s3)CC2)cc1` [Example 12, N-(5-((4-(4-ethylbenzylidene)piperidin-1-yl)methyl)thiazol-2-yl)acetamide]: the Ki was determined as 0.703 nM.

Regarding `CC(=O)Nc1ncc(CN2CCC(=Cc3ccc4c(c3)CNC4=O)CC2)s1` [Example 21, N-(5-((4-((1-oxoisoindolin-5-yl)methylene)piperidin-1-yl)methyl)thiazol-2-yl)acetamide], the Ki amounted to 0.268 nM.

For `COc1cc(C=C2CCN(Cc3cnc(NC(C)=O)s3)CC2)ccc1O` [Example 22, N-[5-({4-[(4-hydroxy-3-methoxyphenyl)methylidene]piperidin-1-yl}methyl)-1,3-thiazol-2-yl]acetamide], the Ki was 0.634 nM.

In the case of `COc1cccc(C=C2CCN(Cc3cnc(NC(C)=O)s3)CC2)c1` [Example 43, N-(5-((4-(3-methoxybenzylidene)piperidin-1-yl)methyl)thiazol-2-yl)acetamide], the Ki is 2.93 nM.

For the molecule `CC(=O)Nc1ncc(CN2CCC(=Cc3ccc(CCO)cc3)CC2)s1` [Example 50, N-(5-((4-(4-(2-hydroxyethyl)benzylidene)piperidin-1-yl)methyl)thiazol-2-yl)acetamide], the Ki is 0.241 nM.

For the molecule `CC(=O)Nc1ncc(CN2CCC(=Cc3ccc(C(N)=O)cc3)CC2)s1` [Example 9, 4-((1-((2-acetamidothiazol-5-yl)methyl)-piperidin-4-ylidene)methyl)benzamide], the Ki was determined as 0.294 nM.

In the case of `CC(=O)Nc1ncc(CN2CCC(=Cc3ccc4[nH]ccc4c3)CC2)s1` [Example 18, N-(5-{[4-(1H-indol-5-ylmethylidene)piperidin-1-yl]methyl}-1,3-thiazol-2-yl)acetamide], the Ki is 0.427 nM.

For the molecule `CC(=O)N(C)c1ncc(CN2CCC(=Cc3ccc(CCF)cc3)CC2)s1` [Example 28, N-(5-((4-(4-(2-fluoroethyl)benzylidene)-piperidin-1-yl)methyl)thiazol-2-yl)-N-methylacetamide], the Ki came out at 5.71 nM.

Consider `CC(=O)Nc1ncc(CN2CCC(=Cc3cccc(CC(N)=O)c3)CC2)s1` [Example 10, 2-(3-((1-((2-acetamidothiazol-5-yl)methyl)-piperidin-4-ylidene)methyl)phenyl) acetamide], for which the Ki amounted to 0.614 nM.

For `COc1cccc(C=C2CCN(Cc3cnc(NC(C)=O)s3)CC2)c1OC` [Example 16, N-[5-({4-[(2,3-dimethoxyphenyl)methylidene]piperidin-1-yl}methyl)-1,3-thiazol-2-yl]acetamide], the inhibition constant Ki worked out at 3.4 nM.

As to `COc1ccc(/C=C2\CCN(Cc3cnc(NC(C)=O)s3)[C@@H](C)C2)cc1` [Example 41, (S,E)-N-(5-((4-(4-methoxybenzylidene)-2-methylpiperidin-1-yl)methyl)thiazol-2-yl)acetamide], the Ki was 9.61 nM.

Take `CC(=O)Nc1ncc(CN2CCC(=Cc3ccccc3)CC2)s1` [Example 33, N-(5-{[4-(phenyl-methylidene)piperidin-1-yl]methyl}-1,3-thiazol-2-yl)acetamide]: the Ki amounted to 1.75 nM.

`CC(=O)Nc1ncc(CN2CCC(=Cc3ccc(O)nc3)CC2)s1` [Example 3, N-(5-((4-((6-hydroxypyridin-3-yl)methylene)piperidin-1-yl)methyl)thiazol-2-yl)acetamide]: the Ki came to 1.09 nM.

Take `CC(=O)Nc1ncc(CN2CCC(=Cc3ccc(S(=O)(=O)N(C)C)cc3)CC2)s1` [Example 17, N-(5-((4-(4-(N,N-dimethylsulfamoyl)benzylidene)piperidin-1-yl)methyl)thiazol-2-yl)acetamide]: the Ki stood at 0.0954 nM.

For `CC(=O)Nc1ncc(CN2CCC(=Cc3ccc(OCCF)cc3)CC2)s1` [Example 42, N-{5-[(4-{[4-(2-fluoroethoxy)phenyl]methylidene}piperidin-1-yl)methyl]-1,3-thiazol-2-yl}acetamide], the Ki stood at 0.625 nM.

With `CC(=O)Nc1ncc(CN2CCC(=Cc3ccc(C(=O)O)cc3)CC2)s1` [Example 29, 4-[(1-{[2-(acetylamino)-1,3-thiazol-5-yl]methyl}piperidin-4-ylidene)methyl]benzoic acid], the Ki came to 0.324 nM.

As to `COC(=O)c1ccc(C=C2CCN(Cc3cnc(NC(C)=O)s3)CC2)cc1` [Example 24, methyl 4-((1-((2-acetamidothiazol-5-yl)methyl)piperidin-4-ylidene)methyl)benzoate], the Ki was 1.37 nM.

These data come from patent publication US10913733B2, “Substituted piperidines thiazolyl acetamides as glycosidase inhibitors and uses thereof” (priority 2015, dated 2021).
